# Measurements reported in ChEMBL document CHEMBL1134820, “Synthesis of antitumor dendritic imides” (Bioorg Med Chem Lett, 2001).
# Experiments:
# HT-29 = experiment: Cytotoxic effect on human colon carcinoma HT-29 cell line; type: functional; conditions: read-out: ID50 (the source's name)
# [1] = target: Tyrosine-protein kinase Lck (Homo sapiens, UniProt P06239); experiment: Inhibition of lck catalytic domain expressed in baculovirus
# Chain of Tyrosine-protein kinase Lck (P06239 whole entry, the tested form may be a part): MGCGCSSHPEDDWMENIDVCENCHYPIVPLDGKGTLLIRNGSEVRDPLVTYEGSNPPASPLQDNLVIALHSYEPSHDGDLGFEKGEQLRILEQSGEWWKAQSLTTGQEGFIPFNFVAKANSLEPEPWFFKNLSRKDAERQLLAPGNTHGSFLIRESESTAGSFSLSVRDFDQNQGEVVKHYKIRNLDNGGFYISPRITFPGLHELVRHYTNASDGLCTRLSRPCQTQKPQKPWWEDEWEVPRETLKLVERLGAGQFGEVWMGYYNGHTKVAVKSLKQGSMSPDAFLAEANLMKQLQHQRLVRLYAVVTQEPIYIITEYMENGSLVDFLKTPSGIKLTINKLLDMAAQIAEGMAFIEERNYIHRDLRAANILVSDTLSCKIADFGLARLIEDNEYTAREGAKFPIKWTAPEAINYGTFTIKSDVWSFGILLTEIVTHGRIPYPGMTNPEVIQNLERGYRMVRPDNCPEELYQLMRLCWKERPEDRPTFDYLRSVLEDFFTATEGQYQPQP
IC50 [1],SMILES,IC50 (HT-29)
–,CN(C)CCN1C(=O)c2cccc3cc(N)cc(c23)C1=O [AMONAFIDE],38 µM
–,O=C1c2cccc3cccc(c23)C(=O)N1CCNCCCNCCN1C(=O)c2cccc3cccc(c23)C1=O [ELINAFIDE],0.014 µM
–,N#CCCN(CCC#N)CCCN(CCCN(CCC#N)CCC#N)CCCN(CCN)CCCN(CCCN(CCC#N)CCC#N)CCCN(CCC#N)CCC#N,> 100 µM
–,N#CCCN(CCC#N)CCCN(CCCN(CCC#N)CCC#N)CCCN(CCCN(CCCN(CCC#N)CCC#N)CCCN(CCC#N)CCC#N)CCN1C(=O)c2cccc3cc([N+](=O)[O-])cc(c23)C1=O,> 100 µM
> 50 µM,N#CCCN(CCC#N)CCCN(CCCN(CCC#N)CCC#N)CCCN(CCCN(CCCN(CCC#N)CCC#N)CCCN(CCC#N)CCC#N)CCN1C(=O)c2cccc3cccc(c23)C1=O,> 100 µM
> 50 µM,N#CCCN(CCC#N)CCCN(CCCN(CCC#N)CCC#N)CCCN(CCCN(CCCN(CCC#N)CCC#N)CCCN(CCC#N)CCC#N)CCN1C(=O)C(c2ccccc2)=C(c2ccccc2)C1=O,57 µM
–,NCCCN(CCCN)CCCN(CCCN(CCCN)CCCN)CCCN(CCCN(CCCN(CCCN)CCCN)CCCN(CCCN)CCCN)CCN1C(=O)c2cccc3cccc(c23)C1=O,44 µM
–,N#CCCN(CCC#N)CCCN(CCCN(CCC#N)CCC#N)CCCN(CCCN(CCCN(CCC#N)CCC#N)CCCN(CCC#N)CCC#N)CCN1C(=O)c2cccc3cc(N)cc(c23)C1=O,> 100 µM
–,NCCCN(CCCN)CCCN(CCCN(CCCN)CCCN)CCCN(CCCN(CCCN(CCCN)CCCN)CCCN(CCCN)CCCN)CCN1C(=O)C(c2ccccc2)=C(c2ccccc2)C1=O,100 µM
